# Laboratory results: patent US8188011B1, “Optimization of ligand affinity for RNA targets using mass spectrometry” (Isis Pharmaceuticals, Inc., priority 2000, dated 2012)
# Where “and” joins values, the source holds several entries; their conditions need not be identical. Equal values may be shown once. Entries after “also recorded” stand apart in the source; their conditions may differ. Read-outs that look alike come from different tables or passages of the source. Marks after values point to notes of the source that are not given here.
# Assays:
# [1] = system: 27 nucleotide fragment of bacterial 16S ribosomal RNA incorporating the A-site; assay: ESI-FT-ICR MS detection of non-covalent ligand:16S RNA complexes (ion abundance relative to unbound RNA); format: binding; details: for ion abundance of binary ligand:16S complex relative to unbound 16S RNA: 200 μM ligand, 5 μM target 16S RNA fragment; for affinity for 16S (order of magnitude): ESI-MS assay
# Experimental: In separate mixtures, 200 μM of three ligands IBIS-326611 ((2S)-2-amino-3-hydroxy-1-piperazinylpropan-1-one), IBIS-326645 (5-methyl-1-(2-oxo-2-piperazinylethyl)-1,3-dihydropyrimidine-2,4-dione) and a concatenated compound thereof, IBIS-271583 (1-{2-[(3R)-4-(2S)-2-amino-3-hydroxypropanoyl)-3-methylpiperazinyl]-2-oxoethyl}-5-methyl-1,3-dihydropyrimidine-2,4-dione) are each mixed with 5 μM of target 16S RNA fragment and analyzed by mass spectrometry. IBIS-326611 is shown in FIG. 5 to form a binary complex having an ion abundance 27.8% that of the unbound 16S RNA while IBIS-326645 in FIG. 6 forms a binary complex having an ion abundance 14.7% that of the unbound 16S RNA.
# All MS experiments were performed by using an Apex II 70e ESI-FT-ICR MS (Bruker Daltonics, Billerica, Mass.) with an actively shielded 7 tesla superconducting magnet. RNA solutions were prepared in 50 mM NH4OAc (pH 7), mixed with 10% isopropanol to aid desolvation, and infused at a rate of 1.5 μL/min by using a syringe pump. Ions were formed in a modified electrospray source (Analytica, Branford, Conn.) by using an off-axis grounded electrospray probe positioned ca. 1.5 cm from the metallized terminus of the glass desolvation capillary biased at 5,000 V. A countercurrent flow of dry […] gas heated to 150° C. was used to assist in the desolvation process. Ions were accumulated in an external ion reservoir comprised of a radio frequency-only hexapole, a skimmer cone, and an auxiliary electrode for 1,000 ms before transfer into the trapped ion cell for mass analysis. Each spectrum was the result of the co-addition of 64 transients comprised of 524,288 data points acquired over a […] bandwidth, resulting in a 1.2-sec detection interval. All aspects of pulse sequence control, data acquisition, and postacquisition processing were performed by using a Bruker Daltonics data station running XMASS Version 4.0 on a Silicon Graphics (Mountain View, Calif.) R5000 computer.
# RNA binding ligands are selected from a set of compounds using mass spectrometry. The RNA used for the target molecule is an RNA whose electrospray ionization properties have been optimized in conjunction with optimization of the electrospray ionization and desolvation conditions. […] A 50 μM stock solution of the RNA is purified, and dialyzed to remove sodium and potassium ions.
# The compound set is pooled into mixtures of 8 members, each present at 1-10 mM in […]. A collection of these mixtures is diluted 1:50 into an aqueous solution containing 50-150 mM ammonium acetate buffer at pH 7.0, 1-5 μM RNA target, and 10-50% isopropanol, ethanol, or methanol to create the screening sample. The aqueous solution contains 100 μM each of 8 compounds, 50 mM ammonium acetate, 5 μM RNA target, and 25% isopropanol. These screening samples are arrayed in a 96-well microtiter plate, or added to individual vials for queuing into an automated robotic liquid hander under computer control by the mass spectrometer.
# The source voltage potentials are adjusted to give stable electrospray ionization by monitoring the ion abundance of the free RNA. […] If available on the mass spectrometers, the partial gas pressure beyond the desolvation capillary is adjusted by throttling the pumping speed. This gas pressure may also be altered to optimize the ion abundance and observation of the ammonium ion adducts. After instrument performance has been optimized, the voltage potential between the capillary and skimmer lens is increased to reduce the abundance of the ion from the monoammonium-RNA complex to […] of the abundance of the ion from the RNA. These instrument parameters are used for detection of complexes between the RNA and compound set.
# The compound set is screened for members that form non-covalent complexes with the RNA. […]
# [2] = target: 16S ribosomal RNA fragment (27mer RNA, SEQ ID NO:1); assay: ESI-MS titration of 2-DOS against 16S, polynomial fit for dissociation constants; format: binding, bacterial; details: 4th order polynomial fit, 100 mM ammonium acetate buffer
# Experimental: 2′-O-ACE protected 27mer RNA ([…]; SEQ ID NO:1) was purchased from Dharmacon Research (Boulder, Colo.). Aqueous solutions were deprotected for 30 min at 60° C. in a 0.1M tetramethylenediamine acetate buffer at pH 3.5. […] All chemicals were purchased from Aldrich Chemicals (Milwaukee), except for 2-deoxystreptamine and 3,5-diamino-1-N-methyl-triazole, which were prepared according to Georgiadis et al (J. Carbohydr. Chem. 1991, 10, 739-748) and Kaiser et al (U.S. Pat. No. 2,648,670). Ligands were added to the indicated final concentrations from 20 mM aqueous solutions.
# Identical sample preparations were used for experiments with FTICR mass spectrometer. […] Sample was introduced at 1.0 μL/min and the capillary interface unheated. Ions were stored for 1.25 sec in a hexapole ion guide prior to transfer to the trapped ion cell. The indicated gas pressure over the vacuum pump situated below the hexapole ion guide was ˜8×10^−6 mbar. The parallel measurements of relative activation energy were performed with the FTICR mass spectrometer by varying the potential difference between the capillary exit and the first skimmer lens element. Typically, 32 1.2 sec transients of 512 k data points were summed prior to Fourier transformation and display.
# 2-deoxystreptamine (2-DOS) bound to 16S at multiple locations as a function of increasing concentration. At 0.33 mM, one 2-DOS bound 16S, generating an [M-5H^+]^5− complex observed at m/z 1758.9. Complexes corresponding to three and four 2-DOS molecules bound concurrently to 16S appeared at concentrations above 3.3 mM. Knowledge of the binding stoichiometry lead to the use of a fourth-order polynomial for calculation of the respective dissociation constants (KD) (Greig et al., J. Am. Chem. Soc. 1995, 117, 10765-10766).
# [3] = system: 27-mer fragment of ribosomal RNA comprising the 16S A-site; assay: Mode of binding of ligand pairs by ESI-MS (presence or absence of ternary complex); design: species or system bacterial; details: for binding interaction of ligand pair 2-DOS / 3,5-DT on 16S RNA: 5 μM 16S, 100 μM 2-DOS, 0.5 mM 3,5-DT; for binding interaction of ligand pair 2-DOS / 2,4-diaminopyrimidine on 16S RNA: no ternary complex signal; for binding interaction of ligand pair Ibis-326732 / glucosamine on 16S RNA: 70 μM Ibis-326732, 100 μM glucosamine, 5 μM 16S RNA
# Source text: Ligands bind competitively for a target when the binding of one ligand prevents the binding of the other ligand is the result of the ligands binding to the target at the same location. In this situation, the mixture contains an equilibrium of two binary complexes, one of which being one ligand bound to the target and the other being the other ligand bound to the target. The ligand having the greater affinity for the target will predominate and thus have higher signal intensity for its binary complex with the target compared to the other ligand. Competitive binding interaction between two ligands is determined according to methods of the invention by analyzing the mixture by mass-spectrometry to detect the presence or lack of signal corresponding to a ternary complex where both ligands are bound to the target at the same time. The lack of signal for a ternary complex indicates a competitive binding interaction between the two ligands while the presence of the signal indicates a non-competitive interaction.
# Accordingly, in an aspect of the present invention, there is provided a method for determining the relative interaction between at least two ligands with respect to a target substrate. In practicing this method an amount of each of the ligands is mixed with an amount of the target substrate to form a mixture. This mixture is analyzed by mass spectrometry to determine the presence or absence of a ternary complex corresponding to the simultaneous adduction of two of the ligands with the target substrate.
# Ligands bind concurrently when the binding of one ligand to the target is unaffected by the binding of the other and is a consequence of the ligands binding to the target at distinct sites. […] The ligand having the greater affinity for the target will have higher signal intensity for its binary complex with the target compared to the other ligand. […] Particularly, the absolute ion abundance of the ternary complex (TL1L2) is compared to the relative ion abundance of the binary complexes (TL1 and TL2) which contribute to the formation of the ternary complex with respect to the unbound target (TL1×TL2/T). Since there are two binary complexes contributing the formation of the ternary complex, the comparison is with the sum of the two contributing binary complexes i.e. TL1×TL2/T+TL2×TL1/T. If the absolute ion abundance of the ternary complex is equal to the sum of the relative ion abundance of the contributing binary complexes, then the two ligands concurrently bind to the target substrate. Expressed another way, a pair of ligands are concurrent binders for a target if in either of the following equivalent formulae the value of y is equal to zero: […]
# In the compound collection used in Example 1, those compounds that formed complexes with the RNA target are pooled into groups of 4-10 and screened again as a mixture against the RNA target as outlined in Example 1. Since all of the compounds have been shown previously to bind to the RNA, three possible changes in the relative ion abundance are observed in the mass spectrometry assay. If two compounds bind at the same site, the ion abundance of the RNA complex for the weaker binder will be decreased through competition for RNA binding with the higher affinity binder (competitive binding). An example is presented in FIG. 3, where the ion abundance from a glucosamine-RNA complex is reduced as glucosamine is displaced from the RNA by addition of a benzimidazole compound. If two compounds can bind at distinct sites, signals will be observed from the respective binary complexes with the RNA and from the ternary complex where both compounds bind to the RNA simultaneously (concurrent binders). […] The relative ion abundance from the […] for 3,5-DT to the free RNA is measured, as is the relative ion abundance from the ternary complex between 3,5-DT, 2-DOS, and RNA and the binary complex. […]
# [4] = system: 16S ribosomal RNA fragment; assay: Relative solution affinities of ligand:16S complexes; format: binding, bacterial; details: normalized to the solution affinity of 4-aminobenzamidine
molecule,measurement,setting,value
"1-{2-[(3R)-4-(2S)-2-amino-3-hydroxypropanoyl)-3-methylpiperazinyl]-2-oxoethyl}-5-methyl-1,3-dihydropyrimidine-2,4-dione [IBIS-271583]",affinity for 16S RNA compared with another ligand (ion abundance of binary complexes),[1],greater affinity for 16S than either parent compound
same,ion abundance of binary ligand:16S complex relative to unbound 16S RNA,[1],14.7%
same,ion abundance of binary ligand:16S complex relative to unbound 16S RNA,[1]; listed as IBIS-271483,52.4%
same,affinity for 16S RNA compared with another ligand (ion abundance of binary complexes),[1]; listed as IBIS-271483,greater affinity for the target 16S RNA than either of the parent compounds
"N[C@@H]1C[C@H](N)[C@@H](O)C(O)[C@H]1O (stereo partly drawn) [2-DOS, 2-deoxystreptamine]",affinity for 16S RNA compared with another ligand (ion abundance of binary complexes),[1],greater binding affinity for the target RNA than DT
same,Kd,[2]; read-out: KD of 2-DOS:16S complex (first 2-DOS),610 µM and 600 µM
same,Kd,[2]; read-out: KD of (2-DOS)2:16S complex (second 2-DOS),1400 ± 100 µM
same,Kd,[2]; read-out: KD of (2-DOS)3:16S complex (third 2-DOS),4000 ± 1000 µM
same,"binding interaction of ligand pair 2-DOS / 3,5-DT on 16S RNA",[3],concurrent binding interaction; also recorded: cooperative binding
same,"binding interaction of ligand pair 2-DOS / 2,4-diaminopyrimidine on 16S RNA",[3],preferred sites overlap and 2-DOS displaces DAP for binding
"NN1CN(SCc2ccccc2)C=N1 [2-amino-4-benzylthio-1,2,4-triazole]",complex with RNA target observed by ESI-MS,[1],seen
"Nc1n[nH]c(N)n1 [3,5-DT, 3,5-diamino-1,2,4-triazole]",affinity for 16S (order of magnitude),[1],˜mM affinities
same,"binding interaction of ligand pair 2-DOS / 3,5-DT on 16S RNA",[3],cooperative binding; also recorded: concurrent binding
same,"binding interaction of ligand pair 2-DOS / 3,5-DT on 16S RNA",[3]; listed as DT,concurrent binding interaction
"Cn1nc(N)nc1N [3,5-diamino-1-N-methyltriazole]",complex with RNA target observed by ESI-MS,[1],not observed
"N=C(N)c1ccc(N)cc1 [ABA, 4-aminobenzamidine]",Relative Soln. Affinity,[4],1.00^b
"NC(=O)c1[nH]cnc1N [AICA, 4-aminoimidazole-5-carboxamide]",Relative Soln. Affinity,[4],.26 + 0.04
"Nc1ccnc(N)n1 [DAP, 2,4-diaminopyrimidine]",affinity for 16S (order of magnitude),[1],˜mM affinities
same,Relative Soln. Affinity,[4],.17 + 0.04
same,"binding interaction of ligand pair 2-DOS / 2,4-diaminopyrimidine on 16S RNA",[3],preferred sites overlap and 2-DOS displaces DAP for binding
"N[C@H]1C(O)O[C@H](CO)[C@@H](O)[C@@H]1O (stereo partly drawn) [GA, glucosamine]",Relative Soln. Affinity,[4],lower than GBI
same,Relative Soln. Affinity,[4]; listed as Glucosamine,.86 + 0.03
same,binding interaction of ligand pair Ibis-326732 / glucosamine on 16S RNA,[3],competitive binders
"N=C(N)Nc1nc2ccccc2[nH]1 [GBI, 2-guanidylbenzimidazole]",Relative Soln. Affinity,[4],.99 + 0.02
"N[C@@H](CO)C(=O)N1CCNCC1 [IBIS-326611, (2S)-2-amino-3-hydroxy-1-piperazinylpropan-1-one]",ion abundance of binary ligand:16S complex relative to unbound 16S RNA,[1],27.8%
"Nc1cccc2nc(C3CCNCC3)[nH]c12 [Ibis-326732, 4-amino-2-piperidin-4-ylbenzimidazole]",affinity for 16S RNA compared with another ligand (ion abundance of binary complexes),[1],greater affinity than glucosamine
same,binding interaction of ligand pair Ibis-326732 / glucosamine on 16S RNA,[3],competitive binders
